Measured values reported in patent US11917960B2, “Methods to improve genetic transformation of sorghum” (Commonwealth Scientific and Industrial Research Organisation, priority 2016, dated 2024).
Marks after values point to notes of the source that are not given here.

What was measured:
Format in all cases: cell-based, Sorghum bicolor L
[1] = tested on: DEC tissues/somatic embryos; assay: Sensitivity of DEC tissues/somatic embryos to Geneticin; details: for Green DEC tissue survival (%): CIM + 1 mg/l LA, 6 weeks culture
Procedure: The experiment was carried out using 6 weeks-old uniform, healthy green-coloured DEC tissues about 5 mm in size and which contained some somatic embryos, produced after culturing on CIM containing 1 mg/l LA. The Geneticin levels used were 0, 15, 25, 35 and 45 mg/L, respectively. Three replicates each of 15 green DEC tissue pieces per plate were used for each concentration of Geneticin tested. The tissues were cultured for 6 weeks, being subcultured every two weeks onto the same medium, including the same Geneticin concentrations.
After 6 weeks of culture, the number of green DEC tissues that had survived was counted.
DEC tissues (about 5 mm) began to display geneticin stress symptoms on selective callus induction media (CIM with geneticin) within 3 weeks of culture. […] Very few calli (2-6) survived with dead patches. On this basis, geneticin at a final concentration of 25 mg/i was used in the callus induction media for 3 cycles (2 weeks each) and then increased to 30 mg/i for one cycle in shoot induction media (Table 6). Different concentrations of geneticin in CIM and SIM was deemed optimal in preventing shoot regeneration from non-transformed callus.

[2] = tested on: immature embryos (IEs); assay: DEC tissue induction from immature embryos on CIM with or without LA; details: for Green tissue induction frequency: CIM + 1 mg/l LA, 6 weeks culture, mean ± SD, frequency calculated as a percentage, in %
Procedure: Plants of the grain sorghum of the inbred cultivar TX-430 (Miller 1984) were grown in a plant growth chamber (Conviron, PGC-20 flex) at 28±1° C. “day” temperature and 20±1° C. “night” temperature, with a. 16 hr photoperiod at a light intensity during the “day” of 900-1000 LUX. Panicles were covered with white translucent paper bags before flowering. Immature embryos were harvested from panicles 12-15 days after anthesis. Panicles were washed several times with water and developing seeds that were uniform in size were isolated and surface-sterilized using 20% commercial bleach mixed with 0.1% Tween-20 for 15-20 min. They were then washed with sterile distilled water 3 times each for 20 min, and blotted dry in a laminar flow hood. Immature embryos (IEs) ranging from 1.4 to 2.5 mm in length were aseptically isolated in the laminar flow hood and used as the starting tissue for preparation of green regenerative tissue.
The isolated IEs ranging from 1.4 to 2.5 mm in length were placed onto callus induction media (CIM) of various compositions with their scutellum facing upward. CIM modified to improve callus quality and induction frequency from immature embryos, as well as callus regeneration media, included α-Lipoic acid (1 to 5 mg/1), Melatonin (5 to 10 mg/l) and 2-Aminoidan-2-phosphonic acid HCl (1 to 2 mg/l) unless otherwise stated. For the development of green tissue, immature embryos were incubated under fluorescent light of approximately 45-50 μmol s^−1 m^−2 (16 h/day) in a tissue culture room at 24±2° C. After three days of culture, the root and shoot poles of the immature embryos were aseptically separated and re-inoculated on to the same media (CIM) and maintained under the same conditions as described above. They were subcultured every two weeks for 6 weeks by chopping the callus into 2-3 mm portions, re-inoculating on to the same media (CIM) and maintaining under the same conditions described above, after which time the tissue cultures were evaluated for callus quality, callus induction efficiency and transformation efficiency. Callus induction frequency was calculated as the number of calli obtained (˜5 mm) over total number of immature embryos inoculated, as a percentage.
Sets of IEs ranging from 1.4 to 2.5 mm in length, each set isolated from one panicle, were aseptically isolated and cultured on CIM medium as described in Example 1. Some sets were cultured with the addition of α-Lipoic acid (LA, 1 mg/I or 5 mg/), others without, in order to determine the effect of this agent.
After 6 weeks of culture including subculture every two weeks onto the same medium, DEC tissue induction frequency and quality were evaluated. […]

[3] = tested on: immature embryos (IEs); assay: DEC tissue yield on CIM with or without LA; details: for DEC yield in number ~5 mm each: CIM + 1 mg/l LA, 45 IEs
Description: After 4 to 12 weeks of culture, the number of DEC tissues obtained were counted. The number of DEC tissue pieces (˜5 mm) obtained at 12 weeks on CIM with LA was almost double when compared to using CIM without LA. Furthermore, the quality of the DEC tissues obtained on CIM with LA was improved compared to using the medium without LA.

[4] = tested on: DEC tissue of sorghum; assay: Regeneration frequency and number of shoots per DEC tissue on SIM and SRM; details: for Number of shoots/callus / Regeneration frequency (%): LA in SIM and SRM, mean ± SD
Procedure: After six weeks on the CIM, some uniform green-coloured DEC tissue of about 4-7 mm diameter were transferred on to shoot induction medium (SIM) and cultured for another 2-3 weeks in order to begin organogenesis. Tissues which had induced shoot buds were then transferred to shoot regeneration medium (SRM) and again cultured for 2-3 weeks. Regenerability of DEC tissue of different ages (2-6 months from initiation) was also tested on SRM medium comprising different concentrations of BAP (0.5-1.0 mg/l) and TDZ (0.5-1.0 mg/l). The number of shoots were counted and the regeneration frequency (i.e. the number of shoots/DEC tissue) was calculated after 3 weeks culture on SRM (total of approximately 5 weeks culture inclusive of culture on SIM and SRM). Individual shoots approximately 2-3 cm in length were transferred to shoot out growth (SOG) medium and cultured for another 2-3 weeks. Well-developed shoots (4-5 cm in length), were carefully separated from the cluster and transferred to root induction medium (RIM) and cultured for 3-4 weeks. For shoot induction to complete plant regeneration, 50-60 μmol s^−1 m^−2 (16 h/day) fluorescent light was used in the tissue culture room at 24±2° C. Shoots (about 8 cm in length) with numerous (often 15-20) healthy looking roots were transferred to soil and grown to maturity in a PC2 glasshouse at […]. The optimized culture medium composition for the different stages of plant transformation from callus induction to plant regeneration from green tissue induced from immature embryos is presented in Table 1.
Uniform ready-to-use high quality green DEC tissues (5 mm) each with nodular structures induced on CIM medium with or without added LA were transferred to shoot induction medium (SIM) with and without LA and cultured for another 2-3 weeks. Tissues with induced shoot buds were then transferred to shoot regeneration medium (SRM) with or without added LA and again cultured for 2 weeks. Regenerability of green tissues of different ages (2-6 months from initiation) was tested on SRM medium containing different concentrations of BAP (0.5-1.0 mg/l) and TDZ (0.5-1.0 mg/l). Tissues including the shoot buds were again cultured on hormone free medium (SOG) with or without LA. The number of shoots was counted after 2 weeks of culture on SRM and the regeneration frequency (number of shoots/DEC tissue) calculated.

[5] = after 8 weeks on CIM with G25 and 35 mg/l

## CN[C@@H]1[C@@H](O)[C@@H](O[C@@H]2[C@@H](O)[C@H](O[C@H]3O[C@H]([C@@H](C)O)[C@@H](O)[C@H](O)[C@H]3N)[C@@H](N)C[C@H]2N)OC[C@]1(C)O [Geneticin]
[1]; Geneticin 15 mg/l
  Green DEC tissue survival (%): 80 ± 1.0%
[1]; Geneticin 25 mg/l
  Green DEC tissue survival (%): 4 ± 2.6%
[1]; Geneticin 35 mg/l
  Green DEC tissue survival (%): 2 ± 0.5%
[1]; Geneticin 45 mg/l
  Green DEC tissue survival (%): 0%
[1]; [5]
  Appearance of calli: most of the calli turned dark brown in colour with no signs of survival
  Number of calli survived with dead patches: 2-6
[1]; selective callus induction media (CIM with geneticin)
  Time until DEC tissues began to display geneticin stress symptoms: ≤ 3 weeks

## O=C(O)CCCCC1CCSS1 (stereo not drawn) [LA, α-Lipoic acid]
[2]; LA 5 mg/l in CIM
  DEC tissue induction at higher concentration of LA compared to 1 mg/ml: no significant further improvement
[2]; immature embryo size 1.5-2 mm
  Green tissue induction frequency: 79.0 ± 6.5
[2]; immature embryo size >2 mm
  Green tissue induction frequency: 59.0 ± 5.5
[2]; small immature embryos (1.5-2 mm), significant at p<0.01
  DEC tissue induction frequency compared to CIM without LA: greater
[3]; 12 weeks on CIM with LA
  Number of DEC tissue pieces (~5 mm) compared to CIM without LA: almost double
[3]; culturing time 4 weeks
  DEC yield in number ~5 mm each: 36
[3]; culturing time 6 weeks
  DEC yield in number ~5 mm each: 90
[3]; culturing time 8 weeks
  DEC yield in number ~5 mm each: 120
[3]; culturing time 10 weeks
  DEC yield in number ~5 mm each: 218
[3]; culturing time 12 weeks
  DEC yield in number ~5 mm each: 825
[4]; DEC tissue age 2 months
  Number of shoots/callus: 40 ± 4.5^b
  Regeneration frequency (%): 97.6 ± 2.5%
[4]; DEC tissue age 4 months
  Number of shoots/callus: 40 ± 1.5^d
  Regeneration frequency (%): 97 ± 2.6 %
[4]; DEC tissue age 6 months
  Number of shoots/callus: 33 ± 2.5^f
  Regeneration frequency (%): 94.3 ± 2.0 %
[4]; LA included in both SIM and SRM, versus without LA
  Regeneration frequency and number of shoots/DEC tissue for different ages of DEC tissue: did not decline as much
